In patent publication US12240862B2, “Inhibitors of peptidylarginine deiminases” (Gilead Sciences, Inc., priority 2020, dated 2025):

target: T1, human PAD4 (Homo sapiens, UniProt Q9UM07); experiment: In vitro PAD4 BAEE biochemical assay; settings: human PAD4, BAEE substrate; 5 nM PAD4, 2 mM calcium chloride, 3 mM BAEE; geometric mean of multiple experiments
T1 construct: human PAD4 (NM_012387), A2P663, was PCR amplified; His-SUMO (N, cleaved yes); made in house; host or cells: E. coli BL21(DE3)
In short: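 Ammonia generated from BAEE serves as the readout, measured by o-phthalaldehyde after EDTA termination. Final conditions: 5 nM human PAD4 (SUMO tag cleaved), 2 mM CaCl2, 3 mM BAEE, pH 7.6 MOPS buffer, 25 °C for 2 h following a 30-min compound preincubation.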

T1 sequence (Q9UM07 2-663): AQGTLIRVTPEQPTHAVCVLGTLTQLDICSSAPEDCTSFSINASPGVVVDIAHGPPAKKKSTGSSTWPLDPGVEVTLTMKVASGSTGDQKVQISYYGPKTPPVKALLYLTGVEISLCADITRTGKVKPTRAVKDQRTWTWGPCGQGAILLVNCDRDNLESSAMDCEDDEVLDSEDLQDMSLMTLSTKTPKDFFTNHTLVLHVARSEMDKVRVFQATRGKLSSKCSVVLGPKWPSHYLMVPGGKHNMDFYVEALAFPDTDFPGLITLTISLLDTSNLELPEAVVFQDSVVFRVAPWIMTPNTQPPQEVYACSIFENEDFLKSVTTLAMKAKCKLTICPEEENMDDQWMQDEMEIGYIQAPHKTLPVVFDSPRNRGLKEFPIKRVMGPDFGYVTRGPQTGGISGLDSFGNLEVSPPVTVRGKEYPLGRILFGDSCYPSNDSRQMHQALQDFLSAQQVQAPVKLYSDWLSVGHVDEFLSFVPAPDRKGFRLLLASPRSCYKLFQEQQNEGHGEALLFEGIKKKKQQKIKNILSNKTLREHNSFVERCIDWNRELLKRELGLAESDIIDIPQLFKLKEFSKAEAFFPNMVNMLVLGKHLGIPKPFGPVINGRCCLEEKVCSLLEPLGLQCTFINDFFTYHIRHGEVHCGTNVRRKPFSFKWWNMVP

Q: With `COc1cc(C(=O)N2[C@H]3CC[C@@H]2[C@H](N)C3)cc2nc(-c3cc4ccc(N5[C@@H](C)COCS5(=O)=O)nc4n3CC3CC3)c(C)n12` [Example 439, [(1~{R},2~{R},4~{S})-2-amino-7-azabicyclo [2.2.1]heptan-7-yl]-[2-[1-(cyclopropylmethyl)-6-[(5~{S})-5-methyl-3,3-dioxo-1,3,4-oxathiazinan-4-yl]pyrrolo [2,3-b]pyridin-2-yl]-5-methoxy-3-methylimidazo [1,2-a]pyridin-7-yl] methanone] as the compound, how does the IC50 read?
A: 24.3 nM

Q: Which IC50 does the source give for `COc1cc(C(=O)N2[C@H]3CC[C@@H]2[C@H](N)C3)cc2nc(-c3cc4ccc([C@@H](C)NC(=O)N5CCC(C(C)(C)O)C5)nc4n3CC3CC3)c(C)n12` (stereo partly shown) [Example 203, ~{N}-[(1~{R})-1-[2-[7-[(1~{R},2~{R},4~{S})-2-amino-7-azabicyclo[2.2.1]heptane-7-carbonyl]-5-methoxy-3-methylimidazo [1,2-a]pyridin-2-yl]-1-(cyclopropylmethyl)pyrrolo [2,3-b]pyridin-6-yl]ethyl]-3-(2-hydroxypropan-2-yl) pyrrolidine-1-carboxamide] here?
A: 32.4 nM

Q: With `COc1cc(C(=O)N2[C@H]3CC[C@@H]2[C@H](N)C3)cc2nc(-c3cc4ccc([C@@H](C)NC(=O)C5CC(F)(F)C5)nc4n3CC3CC3)c(C)n12` [Example 85, ~{N}-[(1~{R})-1-[2-[7-[(1~{R},2~{R},4~{S})-2-amino-7-azabicyclo[2.2.1]heptane-7-carbonyl]-5-methoxy-3-methylimidazo [1,2-a]pyridin-2-yl]-1-(cyclopropylmethyl)pyrrolo [2,3-b]pyridin-6-yl]ethyl]-3,3-difluorocyclobutane-1-carboxamide] as the compound, how does the IC50 read?
A: 28.7 nM

Q: With `Cc1c(-c2cc3ccc(N(C(F)F)S(C)(=O)=O)nc3n2CC2CC2)nc2cc(C(=O)N3CCC[C@@H](N)C3)cc(C(F)F)n12` [Example 423, ~{N}-[2-[7-[(3~{R})-3-aminopiperidine-1-carbonyl]-5-(difluoromethyl)-3-methylimidazo[1,2-a]pyridin-2-yl]-1-(cyclopropylmethyl)pyrrolo [2,3-b]pyridin-6-yl]-~{N}-(difluoromethyl) methanesulfonamide] as the compound, how does the IC50 read?
A: 1770 nM

Q: How did the IC50 turn out when `Cc1c(-c2cc3ccc(N(C(F)F)S(C)(=O)=O)nc3n2CC2CC2)nc2cc(C(=O)N3CCC[C@@H](N)C3)cc(N(C)C)n12` [Example 422, ~{N}-[2-[7-[(3~{R})-3-aminopiperidine-1-carbonyl]-5-(dimethylamino)-3-methylimidazo[1,2-a]pyridin-2-yl]-1-(cyclopropylmethyl)pyrrolo [2,3-b]pyridin-6-yl]-~{N}-(difluoromethyl) methanesulfonamide] was run?
A: 6370 nM

Q: Which IC50 does the source give for `COc1cc(C(=O)N2[C@H]3CC[C@@H]2[C@H](N)C3)cc2nc(-c3cc4ccc([C@@H](C)NC(=O)c5cnn(C)c5Cl)nc4n3CC3CC3)c(C)n12` [Example 75, ~{N}-[(1~{R})-1-[2-[7-[(1~{R},2~{R},4~{S})-2-amino-7-azabicyclo[2.2.1]heptane-7-carbonyl]-5-methoxy-3-methylimidazo [1,2-a]pyridin-2-yl]-1-(cyclopropylmethyl)pyrrolo [2,3-b]pyridin-6-yl]ethyl]-5-chloro-1-methylpyrazole-4-carboxamide] here?
A: 39.2 nM

Q: How did the IC50 turn out when `COc1cc(C(=O)N2[C@H]3CC[C@@H]2[C@H](N)C3)cc2nc(-c3cc4ccc([C@@H](C)NC(=O)C5(C)COC5)nc4n3CC3CC3)c(C3CC3)n12` [Example 109, ~{N}-[(1~{R})-1-[2-[7-[(1~{R},2~{R},4~{S})-2-amino-7-azabicyclo[2.2.1]heptane-7-carbonyl]-3-cyclopropyl-5-methoxyimidazo [1,2-a]pyridin-2-yl]-1-(cyclopropylmethyl)pyrrolo [2,3-b]pyridin-6-yl]ethyl]-3-methyloxetane-3-carboxamide] was run?
A: 31.7 nM

Q: With `C=CCN[C@@H]1CC[C@@H]2CC[C@H]1N2C(=O)c1cc(OC)n2c(C)c(-c3cc4ccc(N(C(F)F)S(C)(=O)=O)nc4n3CC3CC3)nc2c1` [Example 390, ~{N}-[1-(cyclopropylmethyl)-2-[5-methoxy-3-methyl-7-[(1~{R},2~{R},5~{R})-2-(prop-2-enylamino)-8-azabicyclo[3.2.1]octane-8-carbonyl]imidazo[1,2-a]pyridin-2-yl]pyrrolo [2,3-b]pyridin-6-yl]-~{N}-(difluoromethyl) methanesulfonamide] as the compound, how does the IC50 read?
A: 3790 nM

Q: For `COc1cc(C(=O)N2C[C@@H](N)[C@H](F)C2)cc2nc(-c3cc4ccc(N(C(F)F)S(C)(=O)=O)nc4n3CC3CC3)c(C)n12` [Example 280, ~{N}-[2-[7-[(3~{R}, 4~{R})-3-amino-4-fluoropyrrolidine-1-carbonyl]-5-methoxy-3-methylimidazo [1,2-a]pyridin-2-yl]-1-(cyclopropylmethyl)pyrrolo[2,3-b]pyridin-6-yl]-~{N}-(difluoromethyl) methanesulfonamide], which IC50 is on record?
A: 33800 nM

Q: `COc1cc(C(=O)N2[C@H]3CC[C@@H]2[C@H](N)C3)cc2nc(-c3cc4ccc([C@@H](C)NC(=O)Nc5ccccc5)nc4n3CC3CC3)c(C)n12` [Example 239, 1-[(1~{R})-1-[2-[7-[(1~{R},2~{R},4~{S})-2-amino-7-azabicyclo[2.2.1]heptane-7-carbonyl]-5-methoxy-3-methylimidazo [1,2-a]pyridin-2-yl]-1-(cyclopropylmethyl)pyrrolo [2,3-b]pyridin-6-yl]ethyl]-3-phenylurea] was tested. Which IC50 did it give?
A: 81.7 nM

Q: `COc1cc(C(=O)N2[C@H]3CC[C@@H]2[C@H](N)C3)cc2nc(-c3cc4ccc(N5CCCN(C)S5(=O)=O)nc4n3CC3CC3)c(C)n12` [Example 455, [(1~{R},2~{R},4~{S})-2-amino-7-azabicyclo [2.2.1]heptan-7-yl]-[2-[1-(cyclopropylmethyl)-6-(6-methyl-1,1-dioxo-1,2,6-thiadiazinan-2-yl)pyrrolo[2,3-b]pyridin-2-yl]-5-methoxy-3-methylimidazo[1,2-a]pyridin-7-yl]methanone] was tested. Which IC50 did it give?
A: 113 nM

Q: Which IC50 does the source give for `COc1cc(C(=O)N2C[C@H](N)CC[C@@H]2C)cc2nc(-c3cc4ccc(-c5c(C)nn(CC(N)=O)c5C)nc4n3CC3CC3)c(C)n12` [Example 609, 2-[4-[2-[7-[(2~{S}, 5~{R})-5-amino-2-methylpiperidine-1-carbonyl]-5-methoxy-3-methylimidazo [1,2-a]pyridin-2-yl]-1-(cyclopropylmethyl)pyrrolo [2,3-b]pyridin-6-yl]-3,5-dimethylpyrazol-1-yl]acetamide] here?
A: 711 nM

Q: How did the IC50 turn out when `COc1cc(C(=O)N2[C@H]3CC[C@@H]2[C@H](N)C3)cc2nc(-c3cc4ccc(N5CCN(C)CCS5(=O)=O)nc4n3CC3CC3)c(C)n12` [Example 443, [(1~{R},2~{R},4~{S})-2-amino-7-azabicyclo [2.2.1]heptan-7-yl]-[2-[1-(cyclopropylmethyl)-6-(5-methyl-1,1-dioxo-1,2,5-thiadiazepan-2-yl)pyrrolo[2,3-b]pyridin-2-yl]-5-methoxy-3-methylimidazo [1,2-a]pyridin-7-yl] methanone] was run?
A: 34.4 nM

Q: Which IC50 does the source give for `COc1cc(C(=O)N2[C@H]3CC[C@@H]2[C@H](N)C3)cc2nc(-c3cc4ccc(C5CCN(C)C(=O)C5)nc4n3CC3CC3)c(C)n12` (stereo partly shown) [Example 560, 4-[2-[7-[(1~{R},2~{R}, 4~{S})-2-amino-7-azabicyclo[2.2.1]heptane-7-carbonyl]-5-methoxy-3-methylimidazo[1,2-a]pyridin-2-yl]-1-(cyclopropylmethyl)pyrrolo [2,3-b]pyridin-6-yl]-1-methylpiperidin-2-one] here?
A: 114 nM

Q: With `COc1cc(C(=O)N2CCC[C@@H](N)C2)cc2nc(-c3cc4ccc([C@@H](C)NC(=O)N5CCCC5)nc4n3CC3CC3)c(C)n12` [Example 252, ~{N}-[(1~{R})-1-[2-[7-[(3~{R})-3-aminopiperidine-1-carbonyl]-5-methoxy-3-methylimidazo [1,2-a]pyridin-2-yl]-1-(cyclopropylmethyl)pyrrolo [2,3-b]pyridin-6-yl]ethyl] pyrrolidine-1-carboxamide] as the compound, how does the IC50 read?
A: 98.1 nM

Q: `COc1cc(C(=O)N2[C@H]3CC[C@@H]2[C@H](N)C3)cc2nc(-c3cc4ccc(N5CCOCS5(=O)=O)nc4n3CC3CC3)c(C)n12` [Example 458, [(1~{R},2~{R},4~{S})-2-amino-7-azabicyclo [2.2.1]heptan-7-yl]-[2-[1-(cyclopropylmethyl)-6-(3,3-dioxo-1,3,4-oxathiazinan-4-yl)pyrrolo [2,3-b]pyridin-2-yl]-5-methoxy-3-methylimidazo[1,2-a]pyridin-7-yl]methanone] was tested. Which IC50 did it give?
A: 52.3 nM

Q: With `CS(=O)(=O)N(c1ccc2cc(-c3nc4cc(C(=O)N5CCC[C@@H](N)C5)ccn4c3C3CC3)n(CC3CC3)c2n1)C(F)F` [Example 398, ~{N}-[2-[7-[(3~{R})-3-aminopiperidine-1-carbonyl]-3-cyclopropylimidazo[1,2-a]pyridin-2-yl]-1-(cyclopropylmethyl)pyrrolo [2,3-b]pyridin-6-yl]-~{N}-(difluoromethyl) methanesulfonamide] as the compound, how does the IC50 read?
A: 60.7 nM

Q: Which IC50 does the source give for `COc1cc(C(=O)N2[C@H]3CC[C@@H]2[C@H](N)C3)cc2nc(-c3cc4ccc([C@@H](C)NC(=O)N5CCCC5)nc4n3CC3CC3)c(C3CC3)n12` [Example 249, ~{N}-[(1~{R})-1-[2-[7-[(1~{R},2~{R},4~{S})-2-amino-7-azabicyclo[2.2.1]heptane-7-carbonyl]-3-cyclopropyl-5-methoxyimidazo[1,2-a]pyridin-2-yl]-1-(cyclopropylmethyl)pyrrolo [2,3-b]pyridin-6-yl]ethyl] pyrrolidine-1-carboxamide] here?
A: 66 nM

Q: With `COc1cc(C(=O)N2[C@H]3CC[C@@H]2[C@H](N)C3)cc2nc(-c3cc4ccc([C@@H](C)NC(=O)C5(C)CC5(F)F)nc4n3CC3CC3)c(C)n12` (stereo partly shown) [Example 102, ~{N}-[(1~{R})-1-[2-[7-[(1~{R},2~{R},4~{S})-2-amino-7-azabicyclo[2.2.1]heptane-7-carbonyl]-5-methoxy-3-methylimidazo [1,2-a]pyridin-2-yl]-1-(cyclopropylmethyl)pyrrolo [2,3-b]pyridin-6-yl]ethyl]-2,2-difluoro-1-methylcyclopropane-1-carboxamide] as the compound, how does the IC50 read?
A: 46.6 nM
